Measured values as given in patent US20160199392A1, “METHOD FOR INDIVIDUALIZED DRUG THERAPY” (Autotelic LLC, priority 2015, published 2016).
Marks after values point to notes of the source that are not given here.

Assays:
[1] = test system: Signs and Symptoms of Osteoarthritis; details: cited from earlier work
pain = details: 100 mg dose, for the duration of the six week study; cited from earlier work
[2] = Combined plots / meta analysis of published pharmacokinetic data; assay type: in vivo, patients
Experimental: Accordingly, the dose proportionality may not be as is described by the package insert for Celebrex®. As a result of the failure to determine and pursue target PK ranges, in some instances patients receiving 100 mg patients may not get enough of the drug and the 200 mg patients may receive too much of the drug.
In other words, the most efficacious celecoxib dosage is highly individualized among the elderly. Unexpectedly, elderly here is defined as patients greater than >40 or >50, not the usually definition of elderly (age greater>65).
Based on the wide range of AUC values, some instances patients receiving 100 mg patients may not get enough of the drug and the 200 mg patients may receive too much of the drug (FIG. 2).

[3] = Naproxen group, at 12 weeks, n = 198

Row | SMILES | Withdrawal due to treatment failure (%) ([1]; Naproxen group, 12 weeks, n = 198) | Patient global assessment condition improved (%) [1, 3] | Patient global assessment condition worsened (%) [1, 3] [%] | Physician's global assessment condition improved (%) [1, 3] | Physician's global assessment condition worsened (%) [1, 3] [%] | Mean +/− SEM Osteoarthritis Severity Index ([1]; Naproxen group, at 12 weeks, scale 0 to 24, negative change indicating improvement) | Mean +/− SEM WOMAC Osteoarthritis Index composite score ([1]; Naproxen group, at 12 weeks, scale 0 to 96, negative change indicating improvement) | side effects reported ([1]; 100 mg dose compared with 200 mg dose) | side effects reported (pain) | variability of PK parameters (AUC) by age group ([2]; applicant's meta analysis, one dose AUC, elderly (>40 or >50) vs younger patients, FIG. 3) | variability of pharmacokinetics ([2]; combined plots of published pharmacokinetic data, FIG. 2, 100 mg and 200 mg doses)
1 | COc1ccc2cc([C@H](C)C(=O)O)ccc2c1 [Naproxen, naproxen] | 26‡ % | 29‡ % | 2 | 33‡ % | 1 | −3.1 +/− 0.30‡ | −11.9 +/− 1.29‡ | – | – | – | –
2 | Cc1ccc(-c2cc(C(F)(F)F)nn2-c2ccc(S(N)(=O)=O)cc2)cc1 [celecoxib, Celecoxib] | – | – | – | – | – | – | – | fewer side effects | fewer side effects | higher variability than younger patients | unexpectedly high
